Measured values as given in ChEMBL document CHEMBL4725424, “The Resurrection of Phenotypic Drug Discovery” (ACS Med Chem Lett, 2020).

Legend:
[1] = target: T1, Cyclin-dependent kinase 5/CDK5 activator 1 (Homo sapiens, UniProt Q00535); experiment: Inhibition of CDK5/p25 (unknown origin); format: protein-complex assay
Homo sapiens = organism: Homo sapiens; experiment: Selectivity index, ratio of IC50 for inhibition of CDK4/cyclinD (unknown origin) to IC50 for inhibition of CDK9/cyclinT1 (unknown origin)
[2] = Inhibition of CDK8/cyclinD3 (unknown origin); design: species or system Homo sapiens
CDK3/Cyclin E = CDK3/Cyclin E (Homo sapiens, UniProt Q00526); experiment: Inhibition of CDK3/cyclinE (unknown origin); format: protein-complex assay
CDK9/cyclin T1 = CDK9/cyclin T1 (Homo sapiens, UniProt P50750); experiment: Inhibition of CDK9/cyclinT1 (unknown origin); format: protein-complex assay
[3] = target: T1, Cyclin-dependent kinase 5/CDK5 activator 1; experiment: Inhibition of CDK5/p35 (unknown origin); format: protein-complex assay
[4] = target: Cyclin-dependent kinase 1/cyclin B1 (Homo sapiens, UniProt P06493); experiment: Inhibition of CDK1/cyclinB (unknown origin); format: protein-complex assay
CDK2/Cyclin A2 = CDK2/Cyclin A2 (Homo sapiens, UniProt P24941); experiment: Inhibition of CDK2/cyclinA (unknown origin); format: protein-complex assay
[5] = target: Cyclin-dependent kinase 2/cyclin E1 (Homo sapiens, UniProt P24941); experiment: Inhibition of CDK2/cyclinE (unknown origin); format: protein-complex assay
[6] = target: Cyclin-dependent kinase 4/cyclin D1 (Homo sapiens, UniProt P11802); experiment: Inhibition of CDK4/cyclinD (unknown origin); format: protein-complex assay
CDK7/Cyclin H/MNAT1 = CDK7/Cyclin H/MNAT1 (Homo sapiens, UniProt P50613); experiment: Inhibition of CDK7/cyclinH/MAT1 (unknown origin); format: protein-complex assay
CDK7/Cyclin H/MNAT1, sequence (P51946 whole entry): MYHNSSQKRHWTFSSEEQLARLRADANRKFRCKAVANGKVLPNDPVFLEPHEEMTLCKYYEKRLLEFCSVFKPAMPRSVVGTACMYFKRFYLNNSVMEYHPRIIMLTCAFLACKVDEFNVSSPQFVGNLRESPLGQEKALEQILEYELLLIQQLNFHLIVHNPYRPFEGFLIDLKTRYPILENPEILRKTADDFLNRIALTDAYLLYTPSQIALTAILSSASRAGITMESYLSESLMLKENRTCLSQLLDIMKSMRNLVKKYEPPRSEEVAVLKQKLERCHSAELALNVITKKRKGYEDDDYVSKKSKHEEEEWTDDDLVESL
CDK7/Cyclin H/MNAT1, sequence (P50613 whole entry): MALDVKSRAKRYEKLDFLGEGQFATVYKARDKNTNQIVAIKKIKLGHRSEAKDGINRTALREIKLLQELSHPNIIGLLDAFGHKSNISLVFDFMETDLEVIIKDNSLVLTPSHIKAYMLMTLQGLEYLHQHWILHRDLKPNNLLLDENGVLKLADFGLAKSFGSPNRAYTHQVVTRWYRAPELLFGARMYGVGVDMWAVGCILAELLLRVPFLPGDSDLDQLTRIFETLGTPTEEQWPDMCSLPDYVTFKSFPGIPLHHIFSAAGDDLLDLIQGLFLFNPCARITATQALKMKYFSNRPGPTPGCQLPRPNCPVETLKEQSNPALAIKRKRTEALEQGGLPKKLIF
CDK7/Cyclin H/MNAT1, sequence (P51948 whole entry, further chain): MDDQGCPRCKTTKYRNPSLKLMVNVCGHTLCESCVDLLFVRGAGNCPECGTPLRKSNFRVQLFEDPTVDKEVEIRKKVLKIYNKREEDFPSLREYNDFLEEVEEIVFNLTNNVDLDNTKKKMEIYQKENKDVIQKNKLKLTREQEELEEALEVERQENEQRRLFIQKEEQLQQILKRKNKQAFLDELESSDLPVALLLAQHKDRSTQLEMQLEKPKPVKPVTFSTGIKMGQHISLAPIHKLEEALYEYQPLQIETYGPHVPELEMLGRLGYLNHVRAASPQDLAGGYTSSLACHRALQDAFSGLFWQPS

T1 sequence (Q00535 whole entry): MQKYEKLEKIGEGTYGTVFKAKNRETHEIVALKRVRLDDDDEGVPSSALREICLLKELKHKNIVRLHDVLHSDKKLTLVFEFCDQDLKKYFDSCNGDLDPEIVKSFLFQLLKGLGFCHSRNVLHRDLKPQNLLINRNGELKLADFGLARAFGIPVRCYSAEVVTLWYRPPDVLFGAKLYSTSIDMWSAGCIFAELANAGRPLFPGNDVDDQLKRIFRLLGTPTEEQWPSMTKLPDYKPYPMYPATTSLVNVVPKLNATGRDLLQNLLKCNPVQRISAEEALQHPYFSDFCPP
T1 sequence (Q15078 whole entry, further chain): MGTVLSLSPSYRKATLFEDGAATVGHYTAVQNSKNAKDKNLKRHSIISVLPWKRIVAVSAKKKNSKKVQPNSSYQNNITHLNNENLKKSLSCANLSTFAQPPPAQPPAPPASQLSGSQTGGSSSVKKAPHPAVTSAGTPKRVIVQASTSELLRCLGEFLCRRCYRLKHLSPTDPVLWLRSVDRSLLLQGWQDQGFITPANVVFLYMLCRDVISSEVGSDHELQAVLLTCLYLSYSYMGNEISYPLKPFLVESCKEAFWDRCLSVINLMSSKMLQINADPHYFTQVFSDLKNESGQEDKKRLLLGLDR
CDK9/cyclin T1, sequence (O60563 whole entry): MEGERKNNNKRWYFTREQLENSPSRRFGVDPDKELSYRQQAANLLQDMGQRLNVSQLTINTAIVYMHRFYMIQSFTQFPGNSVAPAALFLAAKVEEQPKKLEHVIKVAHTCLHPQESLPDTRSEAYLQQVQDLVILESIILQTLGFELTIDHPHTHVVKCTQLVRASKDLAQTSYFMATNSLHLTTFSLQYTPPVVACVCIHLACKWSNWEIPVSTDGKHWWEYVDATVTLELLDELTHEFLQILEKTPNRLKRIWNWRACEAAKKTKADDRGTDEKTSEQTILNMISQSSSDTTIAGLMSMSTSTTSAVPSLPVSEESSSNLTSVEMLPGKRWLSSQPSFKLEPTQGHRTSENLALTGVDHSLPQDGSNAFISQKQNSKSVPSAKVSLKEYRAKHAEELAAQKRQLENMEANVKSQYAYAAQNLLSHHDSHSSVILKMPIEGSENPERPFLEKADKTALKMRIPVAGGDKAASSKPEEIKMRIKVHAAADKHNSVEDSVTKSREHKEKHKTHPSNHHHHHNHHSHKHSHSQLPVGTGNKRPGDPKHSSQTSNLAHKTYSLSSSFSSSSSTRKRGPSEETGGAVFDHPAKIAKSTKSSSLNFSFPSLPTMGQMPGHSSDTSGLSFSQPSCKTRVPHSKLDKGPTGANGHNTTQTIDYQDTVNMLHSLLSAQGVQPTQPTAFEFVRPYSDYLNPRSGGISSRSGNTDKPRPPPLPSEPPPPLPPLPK
CDK9/cyclin T1, sequence (P50750 whole entry): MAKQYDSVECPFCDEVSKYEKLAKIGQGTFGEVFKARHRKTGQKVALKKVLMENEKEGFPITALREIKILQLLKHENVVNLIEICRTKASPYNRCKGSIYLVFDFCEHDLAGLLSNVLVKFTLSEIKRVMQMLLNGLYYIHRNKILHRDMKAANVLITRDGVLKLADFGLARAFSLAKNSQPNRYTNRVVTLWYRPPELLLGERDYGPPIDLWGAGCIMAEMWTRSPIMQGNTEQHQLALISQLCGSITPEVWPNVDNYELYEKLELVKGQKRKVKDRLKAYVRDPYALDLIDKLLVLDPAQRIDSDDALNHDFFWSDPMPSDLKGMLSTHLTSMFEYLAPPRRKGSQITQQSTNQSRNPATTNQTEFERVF
CDK3/Cyclin E, sequence (P24864 whole entry): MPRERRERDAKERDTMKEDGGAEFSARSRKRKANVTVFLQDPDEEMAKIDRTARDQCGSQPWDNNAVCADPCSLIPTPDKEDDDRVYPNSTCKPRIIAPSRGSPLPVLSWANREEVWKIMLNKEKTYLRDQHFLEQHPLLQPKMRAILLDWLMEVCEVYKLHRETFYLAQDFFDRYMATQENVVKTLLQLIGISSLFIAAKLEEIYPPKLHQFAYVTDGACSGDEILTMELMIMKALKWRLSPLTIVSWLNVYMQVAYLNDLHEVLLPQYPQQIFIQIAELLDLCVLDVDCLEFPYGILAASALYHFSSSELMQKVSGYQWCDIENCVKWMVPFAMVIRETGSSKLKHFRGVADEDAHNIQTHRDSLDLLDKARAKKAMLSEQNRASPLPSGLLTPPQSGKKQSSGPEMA
CDK3/Cyclin E, sequence (Q00526 whole entry): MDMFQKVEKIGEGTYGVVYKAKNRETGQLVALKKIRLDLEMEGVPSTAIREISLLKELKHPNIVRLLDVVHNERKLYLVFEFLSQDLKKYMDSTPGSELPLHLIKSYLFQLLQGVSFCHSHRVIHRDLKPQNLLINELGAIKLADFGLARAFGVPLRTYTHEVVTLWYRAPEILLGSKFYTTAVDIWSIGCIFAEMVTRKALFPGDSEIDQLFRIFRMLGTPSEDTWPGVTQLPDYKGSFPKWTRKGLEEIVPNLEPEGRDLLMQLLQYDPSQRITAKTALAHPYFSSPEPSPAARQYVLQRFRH
Cyclin-dependent kinase 4/cyclin D1, sequence (P11802 whole entry): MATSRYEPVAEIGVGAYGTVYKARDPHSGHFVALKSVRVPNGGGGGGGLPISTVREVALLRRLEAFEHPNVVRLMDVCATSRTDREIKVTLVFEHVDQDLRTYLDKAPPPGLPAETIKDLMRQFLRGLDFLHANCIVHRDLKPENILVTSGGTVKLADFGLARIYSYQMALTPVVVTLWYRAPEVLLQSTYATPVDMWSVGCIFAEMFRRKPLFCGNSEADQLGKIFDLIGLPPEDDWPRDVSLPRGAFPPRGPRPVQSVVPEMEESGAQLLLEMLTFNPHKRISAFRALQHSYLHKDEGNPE
Cyclin-dependent kinase 4/cyclin D1, sequence (P24385 whole entry, further chain): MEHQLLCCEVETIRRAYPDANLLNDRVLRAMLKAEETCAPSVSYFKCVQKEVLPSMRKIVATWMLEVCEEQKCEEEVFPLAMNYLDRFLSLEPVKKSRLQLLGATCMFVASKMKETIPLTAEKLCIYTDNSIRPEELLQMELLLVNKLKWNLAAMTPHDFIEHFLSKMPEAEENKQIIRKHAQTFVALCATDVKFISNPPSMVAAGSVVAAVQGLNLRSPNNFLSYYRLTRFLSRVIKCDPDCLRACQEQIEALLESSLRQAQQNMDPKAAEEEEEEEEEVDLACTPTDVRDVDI
Cyclin-dependent kinase 1/cyclin B1, sequence (P06493 whole entry): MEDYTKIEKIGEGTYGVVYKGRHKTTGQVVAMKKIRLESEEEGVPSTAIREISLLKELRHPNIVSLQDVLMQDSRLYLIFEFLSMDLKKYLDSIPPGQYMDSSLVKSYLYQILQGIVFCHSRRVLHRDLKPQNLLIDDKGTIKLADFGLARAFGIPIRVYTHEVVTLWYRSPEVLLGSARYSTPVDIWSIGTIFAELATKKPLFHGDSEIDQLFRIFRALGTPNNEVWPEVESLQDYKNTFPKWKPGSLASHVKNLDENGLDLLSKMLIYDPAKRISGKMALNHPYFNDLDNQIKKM
Cyclin-dependent kinase 1/cyclin B1, sequence (P14635 whole entry, further chain): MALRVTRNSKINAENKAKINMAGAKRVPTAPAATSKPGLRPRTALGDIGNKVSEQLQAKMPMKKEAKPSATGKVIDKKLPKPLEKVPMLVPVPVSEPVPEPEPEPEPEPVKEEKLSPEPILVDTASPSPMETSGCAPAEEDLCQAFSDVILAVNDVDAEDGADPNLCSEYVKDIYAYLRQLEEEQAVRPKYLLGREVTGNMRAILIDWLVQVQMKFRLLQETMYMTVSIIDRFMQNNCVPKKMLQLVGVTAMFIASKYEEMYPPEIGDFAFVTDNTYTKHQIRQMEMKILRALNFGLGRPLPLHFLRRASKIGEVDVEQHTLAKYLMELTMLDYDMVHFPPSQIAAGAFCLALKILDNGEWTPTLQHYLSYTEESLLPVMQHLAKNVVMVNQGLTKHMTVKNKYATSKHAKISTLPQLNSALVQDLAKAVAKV

IC50 [1]: 186 nM
Ratio IC50 (Homo sapiens): 22.5
IC50 [2]: 712 nM
IC50 (CDK3/Cyclin E): 399 nM
IC50 (CDK9/cyclin T1): 5 nM
IC50 [3]: 159 nM
IC50 [4]: 138 nM
IC50 (CDK2/Cyclin A2): 233 nM
IC50 [5]: 367 nM
IC50 [6]: 112 nM
IC50 (CDK7/Cyclin H/MNAT1): 555 nM
Compound: Nc1nc(N[C@H]2C[C@@H]3CC[C@H]2C3)sc1C(=O)c1ccccc1[N+](=O)[O-]
